Source: the CheMixHub viscosity set
Several values for one entry are separate records, joined by “and”; a condition that tells them apart may be missing. Equal values may be shown once.

Assay: xn = mol fraction of the nth substance listed

CCCCOCC(C)O (stereo unspecified) + CCO
viscosity [mPa·s], 101.33 kPa
Details | 298.15 K | 308.15 K | 318.15 K
x1 = 0.05 | 1.229 | 1.013 | 0.846
x1 = 0.1 | 1.344 | 1.103 | 0.915
x1 = 0.15 | 1.462 | 1.193 | 0.982
x1 = 0.2 | 1.585 | 1.279 | 1.046
x1 = 0.25 | 1.705 | 1.363 | 1.108
x1 = 0.3 | 1.813 | 1.442 | 1.166
x1 = 0.35 | 1.918 | 1.516 | 1.22
x1 = 0.4 | 2.022 | 1.589 | 1.273
x1 = 0.45 | 2.12 | 1.656 | 1.321
x1 = 0.5 | 2.211 | 1.724 | 1.365
x1 = 0.55 | 2.305 | 1.779 | 1.409
x1 = 0.6 | 2.384 | 1.841 | 1.445
x1 = 0.65 | 2.469 | 1.891 | 1.49
x1 = 0.7 | 2.536 | 1.935 | 1.517
x1 = 0.7499 | 2.608 | 1.983 | 1.55
x1 = 0.7998 | 2.674 | 2.035 | 1.58
x1 = 0.85 | 2.737 | 2.067 | 1.609
x1 = 0.8998 | 2.788 | 2.099 | 1.633
x1 = 0.95 | 2.841 | 2.135 | 1.647

COC(C)=O + CCO
298.15 K, 101.33 kPa
Details | viscosity [mPa·s]
x1 = 0.1146 | 0.833
x1 = 0.2045 | 0.695
x1 = 0.3207 | 0.574
x1 = 0.4245 | 0.506
x1 = 0.5004 | 0.467
x1 = 0.6077 | 0.438
x1 = 0.7989 | 0.399
x1 = 0.8802 | 0.39

COC(C)=O + CCOC(C)=O
viscosity, 101 kPa
Details | 298.15 K | 313.15 K
x1 = 0.0544 | 0.432 mPa·s | 0.372 mPa·s
x1 = 0.0916 | 0.429 mPa·s | 0.37 mPa·s
x1 = 0.2242 | 0.418 mPa·s | 0.361 mPa·s
x1 = 0.3041 | 0.412 mPa·s | 0.357 mPa·s
x1 = 0.3995 | 0.405 mPa·s | 0.351 mPa·s
x1 = 0.5024 | 0.399 mPa·s | 0.346 mPa·s
x1 = 0.5482 | 0.396 mPa·s | 0.344 mPa·s
x1 = 0.6054 | 0.392 mPa·s | 0.341 mPa·s
x1 = 0.7024 | 0.387 mPa·s | 0.337 mPa·s
x1 = 0.8025 | 0.381 mPa·s | 0.333 mPa·s
x1 = 0.9028 | 0.377 mPa·s | 0.33 mPa·s
x1 = 0.9548 | 0.376 mPa·s | 0.33 mPa·s
x2 = 0.07815 | 0.3638 mPa·s | –
x2 = 0.189 | 0.3713 mPa·s | –
x2 = 0.3264 | 0.3801 mPa·s | –
x2 = 0.4453 | 0.3876 mPa·s | –
x2 = 0.5532 | 0.3943 mPa·s | –
x2 = 0.7914 | 0.4098 mPa·s and 0.4098 mPa·s | –
x2 = 0.8752 | 0.4158 mPa·s | –

COc1ccccc1N + CCOCCO
303.15 K, 101 kPa
Details | viscosity [mPa·s]
x1 = 0.0875 | 2.2
x1 = 0.1775 | 2.547
x1 = 0.2701 | 2.908
x1 = 0.3653 | 3.268
x1 = 0.4633 | 3.603
x1 = 0.5643 | 3.917
x1 = 0.6683 | 4.18
x1 = 0.7755 | 4.436
x1 = 0.886 | 4.681

COC(C)=O + CN1CCCC1=O
viscosity [mPa·s], 101 kPa
Details | x2 = 0.0845 | x2 = 0.172 | x2 = 0.2626 | x2 = 0.3565 | x2 = 0.4539 | x2 = 0.5549 | x2 = 0.6598 | x2 = 0.7688 | x2 = 0.8821
303.15 K | 0.52 | 0.671 | 0.818 | 0.958 | 1.096 | 1.22 | 1.326 | 1.424 | 1.502
308.15 K | 0.488 | 0.619 | 0.749 | 0.873 | 0.991 | 1.102 | 1.195 | 1.284 | 1.358
313.15 K | 0.445 | 0.571 | 0.693 | 0.811 | 0.923 | 1.028 | 1.118 | 1.202 | 1.271
318.15 K | 0.412 | 0.526 | 0.638 | 0.743 | 0.846 | 0.939 | 1.022 | 1.098 | 1.163

OCCNCCO + CN1CCCC1=O
viscosity [mPa·s], 101 kPa
Details | 293.15 K | 303.15 K | 313.15 K | 323.15 K
x2 = 0.1012 | 457.2 | 211.6 | 100.2 | 38.39
x2 = 0.1941 | – | 103.8 | 43.29 | 27
x2 = 0.2002 | 222.2 | 106.2 | 60.47 | 24.87
x2 = 0.3004 | 85.35 | 47.36 | 28.26 | 17.59
x2 = 0.4003 | 53.69 | 31.19 | 19.32 | 12.45
x2 = 0.4024 | – | 31.82 | 15.04 | 10.25
x2 = 0.4998 | 27.76 | 16.74 | 10.6 | 7.513
x2 = 0.5851 | – | 16.32 | 7.42 | 6.32
x2 = 0.6003 | 16.21 | 9.543 | 5.75 | 3.961
x2 = 0.7 | 7.618 | 5.537 | 4.107 | 3.18
x2 = 0.7962 | – | 8.38 | 4.04 | 3.22
x2 = 0.7997 | 4.326 | 3.448 | 2.746 | 2.257
x2 = 0.8994 | 2.841 | 2.318 | 1.927 | 1.63

CCC(C)=O + CN(C)C=O
298.15 K, 101 kPa
Details | viscosity [mPa·s]
x2 = 0.0395 | 0.387
x2 = 0.0843 | 0.403
x2 = 0.1186 | 0.414
x2 = 0.1681 | 0.43
x2 = 0.2276 | 0.451
x2 = 0.2773 | 0.471
x2 = 0.3768 | 0.499
x2 = 0.5116 | 0.547
x2 = 0.6168 | 0.581
x2 = 0.7438 | 0.662
x2 = 0.8079 | 0.698

OCCNCCO + CN(C)C=O
viscosity [mPa·s], 101 kPa
Details | 298.15 K | 303.15 K | 308.15 K | 313.15 K | 318.15 K | 323.15 K
x2 = 0.7704 | 2.703 | 2.509 | 2.34 | 2.172 | 2.034 | 1.879
x2 = 0.8119 | 2.172 | 2.009 | 1.842 | 1.682 | 1.542 | 1.427
x2 = 0.8519 | 1.853 | 1.686 | 1.559 | 1.429 | 1.295 | 1.204
x2 = 0.8907 | 1.53 | 1.423 | 1.321 | 1.206 | 1.115 | 1.03
x2 = 0.9283 | 1.357 | 1.238 | 1.14 | 1.043 | 0.9653 | 0.8984
x2 = 0.9647 | 1.169 | 1.097 | 1.02 | 0.9487 | 0.8828 | 0.8316

COc1ccccc1N + CNC=O
viscosity [mPa·s], 100 kPa
Details | x2 = 0.0714 | x2 = 0.1715 | x2 = 0.2636 | x2 = 0.3576 | x2 = 0.4701 | x2 = 0.5625 | x2 = 0.6556 | x2 = 0.7454 | x2 = 0.8325
303.15 K | 4.69 | 4.361 | 4.058 | 3.747 | 3.373 | 3.065 | 2.753 | 2.45 | 2.155
308.15 K | 4.301 | 4.001 | 3.725 | 3.441 | 3.1 | 2.817 | 2.532 | 2.256 | 1.986
313.15 K | 3.99 | 3.713 | 3.456 | 3.192 | 2.875 | 2.613 | 2.348 | 2.091 | 1.841
318.15 K | 3.702 | 3.446 | 3.209 | 2.964 | 2.67 | 2.428 | 2.182 | 1.944 | 1.711

COC(C)=O + CO
298.15 K, 101.33 kPa
Details | viscosity [mPa·s]
x1 = 0.0996 | 0.498
x1 = 0.2029 | 0.462
x1 = 0.3433 | 0.421
x1 = 0.4025 | 0.41
x1 = 0.4912 | 0.397
x1 = 0.6272 | 0.386
x1 = 0.7892 | 0.38
x1 = 0.8704 | 0.381

COCCOC + CO
298.15 K, 101 kPa
Details | viscosity [mPa·s]
x1 = 0.03801 | 0.5333
x1 = 0.08163 | 0.5252
x1 = 0.1322 | 0.5142
x1 = 0.1916 | 0.4946
x1 = 0.2623 | 0.479
x1 = 0.3478 | 0.4627
x1 = 0.4534 | 0.4496
x1 = 0.5871 | 0.4355
x1 = 0.7619 | 0.4209

O=C(O)c1ccccc1 + CO
viscosity [mPa·s]
Details | 298.15 K | 303.15 K | 308.15 K | 313.15 K | 318.15 K
101 kPa, x1 = 0.15 | – | 1.196 | – | – | 0.9466
101 kPa, x1 = 0.151 | 1.311 | 1.196 | 1.098 | 1.014 | 0.9466
101 kPa, x1 = 0.16 | – | 1.29 | – | – | 1.002
101 kPa, x1 = 0.179 | – | 1.36 | 1.25 | 1.147 | 1.053
101 kPa, x1 = 0.18 | – | 1.36 | – | – | 1.053
101 kPa, x1 = 0.2 | – | – | – | – | 1.133
101.33 kPa, x1 = 0.15 | 1.311 | 1.196 | 1.098 | 1.014 | 0.9466
101.33 kPa, x1 = 0.1514 | – | 1.196 | – | – | 0.9466
101.33 kPa, x1 = 0.1626 | – | 1.29 | – | – | 1.002
101.33 kPa, x1 = 0.1788 | – | 1.36 | – | – | 1.053
101.33 kPa, x1 = 0.18 | – | 1.36 | 1.25 | 1.147 | 1.053
101.33 kPa, x1 = 0.1961 | – | – | – | – | 1.133
